{
  "source": "patent US20250195553A1",
  "about": "“Use of Genipin-1-B-D-Gentiobioside in Preparation of Drug” (Guizhou Bailing Group Pharmaceutical Co., Ltd., priority 2023, published 2025)",
  "key": {"[1]": {"system": "Human Coronavirus 229E (HCoV-229E)", "assay_type": "in vivo", "conditions": "4 days"}, "[2]": {"system": "Mycoplasma Pneumoniae (MP)", "experiment": "Pathological changes in lung tissue of MP-infected mice (HE staining)", "assay_type": "in vivo, BALB/C mice", "parameters": "Alveolitis Lesion Degree / Bronchial Damage / Histological Damage Degree: scale not given here", "protocol": "Fifty BALB/C mice, weighing 14±1 g, were randomly divided into five groups: a normal control group, a model control group, an azithromycin control group, a high-dose Genipin-1-β-D-gentiobioside group (75 mg/ml) with 15-minute nebulization, and a low-dose Genipin-1-β-D-gentiobioside group (37.5 mg/ml) with 15-minute nebulization. Each group consisted of 10 mice, with an equal number of males and females. Except for the normal control group, all mice were lightly anesthetized with isoflurane and infected intranasally with Mycoplasma Pneumoniae (50 μl per mouse) for three consecutive days. On the day of infection, each treatment group received nebulized medication once daily for four consecutive days, while the normal control group and model control group received nebulized saline under the same conditions. On the fifth day, the mice were weighed, sacrificed by cervical dislocation, and their lung tissues were dissected, weighed, and used to calculate the lung index and lung index inhibition rate; measure the levels of inflammatory factors in the lung tissue; measure the serum CRP levels; and conduct pathological examinations of the lung tissue. The results were statistically analyzed using the t-test for intergroup comparisons.\n2.4 Pathological Changes in Mouse Lung Tissue (HE Staining Method)"}, "[3]": {"system": "Human Respiratory Syncytial Virus (RSV)", "experiment": "Mouse pneumonia model infected with RSV, nebulization: lung index", "assay_type": "in vivo", "protocol": "[…] BALB/c mice, weighing 10±1 g, were randomly divided into four groups: a normal control group, a model control group, a high-dose Genipin-1-β-D-gentiobioside group (75 mg/ml), and a low-dose Genipin-1-β-D-gentiobioside group (37.5 mg/ml). Each group consisted of 10 mice, with an equal number of males and females. Except for the normal control group, all mice were lightly anesthetized with isoflurane and infected with respiratory syncytial virus (RSV) via intranasal administration, with each mouse receiving 35 μl of the virus. On the day of infection, the treatment groups began inhalation administration. Each group received nebulization for 25 minutes once daily for four consecutive days. The normal control group and the model control group received nebulized saline under the same conditions. On the fifth day, after weighing, the mice were sacrificed by cervical dislocation, and their lung tissues were dissected, weighed, and used to calculate the lung index and lung index inhibition rate. The lung tissues were also retained for virus load, pathological examination, and inflammatory factor detection. The results were statistically analyzed using the t-test for intergroup comparisons."}, "[4]": {"system": "Lipopolysaccharide (LPS)-induced pneumonia model in mice", "experiment": "Inflammatory factors in lung tissue of LPS-induced pneumonia mice (ELISA)", "assay_type": "in vivo, ICR mice", "conditions": "i.v.", "protocol": "(§1) Sixty healthy mice, weighing 18˜20 g, half male and half female, were selected and randomly grouped after stratification by weight; they were divided into a normal control group, a model control group, three Genipin-1-β-D-gentiobioside dose groups (150 mg/kg/d, 75 mg/kg/d, 37.5 mg/kg/d), and a positive control drug Sivelestat Sodium 50 mg/kg/d group, with 10 mice in each group, half male and half female. After grouping, each treatment group was administered intravenously at 20 ml/kg once daily for 2 consecutive days, while the normal control group and model control group were injected with physiological saline. One hour after the second dose, except for the normal control group, the other groups were lightly anesthetized with isoflurane, and a 20 mg/ml LPS physiological saline solution was administered intranasally to the mice at 0.05 ml/mouse to induce the pneumonia model. Six hours after infection, the animals were sacrificed, dissected, and their lungs were removed and weighed to calculate the lung index (lung index=lung weight/body weight×100%).\n(1) Sample Collection and Storage: Tissue homogenate samples: The lung tissues of mice were collected and weighed, including those from mice numbered 1, 2, 3, 6, 7, and 8 in each group. The tissues were stored at […] An ultrasonic cell disruptor was used to homogenize the tissues, followed by centrifugation at […] and 1000 r/min for 10 minutes using a low-temperature high-speed centrifuge. The supernatant was then collected, aliquoted, and stored at −80° C. for future use, avoiding repeated freeze-thaw cycles.\n(2) The microwell plate, which had been equilibrated to room temperature, was removed from the sealed bag. Different concentrations of standards, experimental samples, or quality control samples were added to the corresponding wells, with 100 μL per well. The reaction wells were sealed with sealing tape and incubated at room temperature for 2 hours. The plate was then washed with wash buffer, repeating the operation four times. After the final wash, the plate was inverted and all residual liquid was patted dry on absorbent paper. Next, 100 μL of enzyme-labeled detection antibody was added to each microwell. The reaction wells were sealed again with sealing tape and incubated at room temperature for another 2 hours. The washing step was repeated as described above. Then, 100 μL of substrate solution was added to each microwell and incubated at room temperature for 30 minutes, protected from light. Within 30 minutes after adding 100 μL of stop solution to each microwell, the absorbance at 450 nm was measured using a microplate reader. The results were then calculated."}, "[5]": {"system": "Lipopolysaccharide (LPS)-induced pneumonia model in mice", "experiment": "LPS-induced pneumonia model in mice, intravenous injection: lung index", "assay_type": "in vivo, ICR mice", "conditions": "for Lung Index: 6 h after LPS", "protocol": "as §1"}, "[6]": {"experiment": "Median particle size of nebulized test drug solutions", "assay_type": "physicochemical", "protocol": "1. Genipin-1-β-D gentiobioside 75 mg/ml group, median particle size is 2.02±0.06 μm; Genipin-1-β-D gentiobioside 37.5 mg/ml group, median particle size is 2.12±0.08 μm; Genipin-1-β-D gentiobioside […] group, median particle size is 2.01±0.09 μm; and Genipin-1-β-D gentiobioside 9.375 mg/ml group, median particle size is 2.07±0.06 μm. The nebulization time for each group is 25 minutes."}, "[7]": {"conditions": "High-Dose Group (75 mg/ml nebulization 15 min)"}, "[8]": {"conditions": "Low-Dose Group (37.5 mg/ml nebulization 15 min)"}, "[9]": {"conditions": "37.5 mg/ml nebulization 25 min once daily 4 days"}, "[10]": {"conditions": "75 mg/ml nebulization 25 min once daily 4 days"}, "[11]": {"conditions": "37.5 mg/kg i.v. once daily 2 days"}, "[12]": {"conditions": "75 mg/kg i.v. once daily 2 days"}, "[13]": {"conditions": "150 mg/kg i.v. once daily 2 days"}},
  "note": "Where two headings read alike, the source gives them in different places. Marks after values point to notes of the source that are not given here.",
  "data": [
    {"compound": "COC(=O)C1=CO[C@@H](O[C@@H]2O[C@H](CO[C@@H]3O[C@H](CO)[C@@H](O)[C@H](O)[C@H]3O)[C@@H](O)[C@H](O)[C@H]2O)[C@@H]2C(CO)=CC[C@H]12", "note": "[Genipin-1-β-D-gentiobioside]", "values": [
      {"measurement": "Inhibition Rate (lung index)", "setting": "[1]; 9.375 mg/ml inhalation 25 min", "result": 65.98, "unit": "%"},
      {"measurement": "Lung Index", "setting": "[1]; 9.375 mg/ml inhalation 25 min", "result": "0.77 ± 0.08 g lung weight × 100 g/body weight"},
      {"measurement": "Inhibition Rate (lung index)", "setting": "[1]; 18.75 mg/ml inhalation 25 min", "result": 65.59, "unit": "%"},
      {"measurement": "Lung Index", "setting": "[1]; 18.75 mg/ml inhalation 25 min", "result": "0.77 ± 0.08 g lung weight × 100 g/body weight"},
      {"measurement": "Inhibition Rate (lung index)", "setting": "[1]; 37.5 mg/ml inhalation 25 min", "result": 64.22, "unit": "%"},
      {"measurement": "Lung Index", "setting": "[1]; 37.5 mg/ml inhalation 25 min", "result": "0.77 ± 0.05 g lung weight × 100 g/body weight"},
      {"measurement": "Inhibition Rate (lung index)", "setting": "[1]; 75 mg/ml inhalation 25 min", "result": 109.19, "unit": "%"},
      {"measurement": "Lung Index", "setting": "[1]; 75 mg/ml inhalation 25 min", "result": "0.71 ± 0.05 g lung weight × 100 g/body weight"},
      {"measurement": "Alveolitis Lesion Degree", "setting": "[2]; [7]", "result": "30.40*"},
      {"measurement": "Bronchial Damage", "setting": "[2]; [7]", "result": "26.60*"},
      {"measurement": "Histological Damage Degree", "setting": "[2]; [7]", "result": "1.50 ± 0.55"},
      {"measurement": "Interstitial Inflammatory Cell Infiltration", "setting": "[2]; [7]", "result": "30.60*"},
      {"measurement": "Pathological changes of lung tissue compared with the model group", "setting": "[2]; High-Dose Group, HE staining", "result": "significantly reduced"},
      {"measurement": "Alveolitis Lesion Degree", "setting": "[2]; [8]", "result": 39.35},
      {"measurement": "Bronchial Damage", "setting": "[2]; [8]", "result": 52.35},
      {"measurement": "Histological Damage Degree", "setting": "[2]; [8]", "result": "1.90 ± 0.39"},
      {"measurement": "Pathological changes (alveolar wall thickening, inflammatory cell infiltration) compared with the model group", "setting": "[2]; Low-Dose Group, HE staining", "result": "significantly reduced"},
      {"measurement": "Inhibition Rate (lung index)", "setting": "[3]; [9]", "result": 68.79, "unit": "%"},
      {"measurement": "Lung Index", "setting": "[3]; [9]", "result": "0.70 ± 0.09 Lung weight/100 g body weight"},
      {"measurement": "Inhibition Rate (lung index)", "setting": "[3]; [10]", "result": 88.35, "unit": "%"},
      {"measurement": "Lung Index", "setting": "[3]; [10]", "result": "0.67 ± 014 Lung weight/100 g body weight"},
      {"measurement": "Inflammatory Factor Levels in Lung Tissue IL-6", "setting": "[4]; dosage 37.5 (mg/ml)", "result": "16.53 ± 1.91", "unit": "pg/mL"},
      {"measurement": "Inflammatory Factor Levels in Lung Tissue IL-10", "setting": "[4]; dosage 37.5 (mg/ml)", "result": "39.00 ± 8.37", "unit": "pg/mL"},
      {"measurement": "Inflammatory Factor Levels in Lung Tissue TNF-α", "setting": "[4]; dosage 37.5 (mg/ml)", "result": "106.13 ± 15.70", "unit": "pg/mL"},
      {"measurement": "Inflammatory Factor Levels in Lung Tissue IL-6", "setting": "[4]; dosage 75 (mg/ml)", "result": "17.72 ± 2.15", "unit": "pg/mL"},
      {"measurement": "Inflammatory Factor Levels in Lung Tissue IL-10", "setting": "[4]; dosage 75 (mg/ml)", "result": "35.75 ± 6.74", "unit": "pg/mL"},
      {"measurement": "Inflammatory Factor Levels in Lung Tissue TNF-α", "setting": "[4]; dosage 75 (mg/ml)", "result": "119.71 ± 19.76", "unit": "pg/mL"},
      {"measurement": "Inflammatory Factor Levels in Lung Tissue IL-6", "setting": "[4]; dosage 150 (mg/ml)", "result": "16.63 ± 2.19", "unit": "pg/mL"},
      {"measurement": "Inflammatory Factor Levels in Lung Tissue IL-10", "setting": "[4]; dosage 150 (mg/ml)", "result": "36.00 ± 5.14", "unit": "pg/mL"},
      {"measurement": "Inflammatory Factor Levels in Lung Tissue TNF-α", "setting": "[4]; dosage 150 (mg/ml)", "result": "100.25 ± 12.41", "unit": "pg/mL"},
      {"measurement": "Inhibition Rate (lung index)", "setting": "[5]; [11]", "result": 48.85},
      {"measurement": "Lung Index", "setting": "[5]; [11]", "result": "0.91 ± 0.09", "unit": "g/100 g body weight"},
      {"measurement": "Inhibition Rate (lung index)", "setting": "[5]; [12]", "result": 94.65},
      {"measurement": "Lung Index", "setting": "[5]; [12]", "result": "0.85 ± 0.14", "unit": "g/100 g body weight"},
      {"measurement": "Inhibition Rate (lung index)", "setting": "[5]; [13]", "result": 77.10},
      {"measurement": "Lung Index", "setting": "[5]; [13]", "result": "0.87 ± 0.01", "unit": "g/100 g body weight"},
      {"measurement": "Median particle size", "setting": "[6]; 9.375 mg/ml group", "result": "2.07±0.06", "unit": "μm"},
      {"measurement": "Median particle size", "setting": "[6]; 18.755 mg/ml group", "result": "2.01±0.09", "unit": "μm"},
      {"measurement": "Median particle size", "setting": "[6]; 37.5 mg/ml group", "result": "2.12±0.08", "unit": "μm"},
      {"measurement": "Median particle size", "setting": "[6]; 75 mg/ml group", "result": "2.02±0.06", "unit": "μm"}
    ]}
  ]
}
